Data on 4 compounds can be found in US7960380B2, “Non-anilinic derivatives of isothiazol-3(2H)-one 1,1-dioxides as liver X receptor modulators” (AstraZeneca AB, priority 2005, dated 2011).

Test [1] addresses T1, human LXRalpha ligand binding domain (GAL4 fusion) (Homo sapiens, UniProt Q13133).
T1 construct: human LXRalpha (amino acid 205-447); expressed in transfected cells; host or cells: U2/OS osteosarcoma cells (electroporated with pSGGAL-LXRalpha)
T1 sequence (Q13133 205-447): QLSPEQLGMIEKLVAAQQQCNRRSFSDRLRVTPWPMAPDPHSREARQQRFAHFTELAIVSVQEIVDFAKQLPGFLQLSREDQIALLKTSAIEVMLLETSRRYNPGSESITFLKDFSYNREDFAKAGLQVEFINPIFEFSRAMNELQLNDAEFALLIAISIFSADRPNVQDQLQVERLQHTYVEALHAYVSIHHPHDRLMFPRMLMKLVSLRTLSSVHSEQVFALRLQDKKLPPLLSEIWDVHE
Kind of test: Transactivation (reporter gene) assay in U2/OS cells (LXRalpha). It is filed as cell-based. The settings on record: LXRα, GAL4-LXR LBD luciferase reporter. Here is the method:
Expression vectors were prepared by inserting the ligand binding domain cDNA (complementary DNA) of human LXRalpha (amino acid 205-447) and LXRbeta (amino acid 216-461) in frame with, 3′ to the yeast GAL4 transcription factor DNA binding domain and the nuclear localization signal from the T-antigen of Polyoma Virus in the eucaryotic expression vector pSG5 (Stratagene). The resulting expression vectors pSGGAL-LXRalpha and pSGGAL-LXRbeta were used in cotransfection experiments together with the pGL3 luciferase reporter plasmid containing a minimal SV40 promoter (Promega) and five copies of the UAS GAL4 recognition site. 2.5 μg pSGGAL-LXRalpha or beta were mixed with 25 μg pGL3 5×UAS and 22.5 μg pBluscript (Stratagene) in 0.95 mL ice cold PBS containing approx. 4-9 milj. U2/OS osteosarcoma cells. After a five minute incubation on ice the cell/DNA mixture was electroporated in 0.4 cm cuvettes at 960 μF, 230 V using a BioRad electroporator and diluted to 0.32 milj cells/mL in complete DMEM [Dulbecco's Modified Eagle Medium w/o phenol red, (Gibco 11880-028) including 10% FBS (Foetal Bovine Serum), 1% PEST (Penicillin Streptomycin), 20 mM Hepes, 2 mM L-Glutamine and 0.36% Glucose Gibco 31966-021] medium. […] Luciferase activity was measured as Luminescence in the Wallac Victor reader after 15 min. incubation at room temperature. […]
(In general: Reporter assays use an easily measured gene product as a stand-in for the process of interest.)

Test [2] concerns the target T2, human LXRalpha Ligand Binding Domain (amino acid 205-447) (Homo sapiens, UniProt Q13133).
T2 construct: human LXRalpha (amino acid 205-447); made in house; host or cells: E. coli
T2 sequence (Q13133 205-447): T1 sequence (Q13133 205-447)
In words: Co-activator recruitment assay (LXRalpha). It is filed as biochemical. The settings on record: LXRα; SRC-1 peptide recruitment, time-resolved fluorescence; read-out: EC50 for LXRα in the coactivator recruitment assay. An excerpt:
The Ligand Binding Domain (LBD) of human LXRalpha (amino acid 205-447) and LXRbeta (amino acid 216-461) was produced by recombinant techniques in E coli. A fragment of the human Steroid Receptor Co-Activator-1 (SRC-1) was produced as a synthetic peptide. An anti-6×His-antibody coupled with Europium (Eu^3+) was used to recognize the His-tag on the LXR-LBD and Allophycocyanin (APC) coupled to streptavidin was used to recognize the biotinylated SRC-1. Agonist binding to LXRalpha or LXRbeta enhances the affinity of LXR towards SRC-1 and thereby brings Eu^3+ and APC in close proximity. Eu^3+ is excited at 337 nm and emitts light at 620 nm. This emission, when in close proximity, excites APC to emit light at 665 nm.
Compounds (10 mM) in DMSO were diluted (1/3) in DMSO in 10 concentrations. This dilution plates were further diluted in buffer {20 mM [Tris(hydroxymethyl)aminomethane] pH 7.5, 0.125% CHAPS {3-[(3-Cholamidopropyl)dimethylammonio]-1-propanesulfonate}, 2 mM DTT (Dithiothreitol) and 0.05% BSA (Bovine Serum Albumin)} in order to reduce DMSO concentration, 0.5 μl to 13.5 μl. To this, 6 μl assay mix was added, giving an maximal assay concentration of 83 μM, and the plates (384-well V-groove plates) were incubated at room temperature for 60 to 80 min. […] Time-resolved fluorescence readings were done in a Wallac Victor reader at 665 nm followed by reading at 615 nm. […]

With `O=C1C(NCCCCc2ccccc2)=C(c2ccccc2)S(=O)(=O)N1C1CCCC1` [Example 2, 2-Cyclopentyl-5-phenyl-4-[(4-phenylbutyl)amino]isothiazol-3(2H)-one 1,1-dioxide], the EC50 in test [1] stood at 1360 nM.

For the compound `CCCCCCNC1=C(c2ccccc2)S(=O)(=O)N(CCCC)C1=O` [Example 6, 2-Butyl-4-(hexylamino)-5-phenylisothiazol-3(2H)-one 1,1-dioxide], the EC50 in test [2] came to 580 nM. In turn, `CCCCN1C(=O)C(NCCCOc2cccc(NC(C)=O)c2)=C(c2ccccc2)S1(=O)=O` [Example 7, N-(3-{3-[(2-Butyl-1,1-dioxido-3-oxo-5-phenyl-2,3-dihydroisothiazol-4-yl)amino]propoxy}phenyl)acetamide] registered an EC50 in test [1] of 270 nM.

With `CC(C)N1C(=O)C(NC2CCN(CCC#N)CC2)=C(c2ccccc2)S1(=O)=O` [Example 10, 3-{4-[(2-Isopropyl-1,1-dioxido-3-oxo-5-phenyl-2,3-dihydroisothiazol-4-yl)amino]piperidin-1-yl}propanenitrile], the EC50 in test [2] worked out at 1420 nM.

What is called EC50 is the concentration giving half of the maximal effect.
